In ChEMBL document CHEMBL5360558, “Molecular design, synthesis and anticancer activity of new thiopyrano[2,3-d]thiazoles based on 5-hydroxy-1,4-naphthoquinone (juglone)” (Eur J Med Chem, 2023):
The source made the active and inactive calls. No cut-off for these calls is given here.

What was measured:
[1] = test system: PC-3; experiment: Growth inhibition of human PC-3 cells incubated for 48 hrs by sulforhodamine B spectrophotometric assay; type: functional
[2] = Acute toxicity in C57BL/6 mouse assessed as lymphocyte count at 20 mg/kg,ip administration and observed after 22 days; type: organism-based; details: in vivo, 528 h, time 22 day
[3] = test system: SF-539; experiment: Growth inhibition against human SF-539 cells assessed as lethal concentration incubated for 48 hrs by sulforhodamine B spectrophotometric assay; type: functional; details: read-out: LC50 (the source's name)
[4] = test system: OVCAR-5; experiment: Growth inhibition against human OVCAR-5 cells assessed as lethal concentration incubated for 48 hrs by sulforhodamine B spectrophotometric assay; type: functional; details: read-out: LC50 (the source's name)
[5] = test system: BT-549; experiment: Growth inhibition against human BT-549 cells assessed as total growth inhibitory concentration incubated for 48 hrs by sulforhodamine B spectrophotometric assay; type: functional
[6] = test system: OVCAR-5; experiment: Growth inhibition against human OVCAR-5 cells assessed as total growth inhibitory concentration incubated for 48 hrs by sulforhodamine B spectrophotometric assay; type: functional
[7] = test system: CCRF-CEM; experiment: Induction of cell cycle arrest in human CCRF-CEM cells assessed as accumulation of cells at S phase at 20.7 uM incubated for 24 hrs by propidium iodide staining based flow cytometry analysis (reference value: 41.09 +/- 0.5%); type: functional
[8] = test system: M14; experiment: Growth inhibition against human M14 cells assessed as total growth inhibitory concentration incubated for 48 hrs by sulforhodamine B spectrophotometric assay; type: functional
[9] = test system: MDA-MB-231; experiment: Induction of apoptosis in human MDA-MB-231 cells assessed as increase in caspase-9 level at 5 uM incubated for 24 hrs by flow cytometry analysis; type: functional
[10] = test system: KM12; experiment: Growth inhibition of human KM12 cells incubated for 48 hrs by sulforhodamine B spectrophotometric assay; type: functional
[11] = test system: SF-268; experiment: Growth inhibition against human SF-268 cells assessed as lethal concentration incubated for 48 hrs by sulforhodamine B spectrophotometric assay; type: functional; details: read-out: LC50 (the source's name)
[12] = test system: DU-145; experiment: Growth inhibition against human DU-145 cells assessed as total growth inhibitory concentration incubated for 48 hrs by sulforhodamine B spectrophotometric assay; type: functional
[13] = test system: MDA-MB-231; experiment: Induction of apoptosis in human MDA-MB-231 cells assessed as increase in caspase-8 level at 10 uM incubated for 24 hrs by flow cytometry analysis; type: functional
[14] = test system: MDA-MB-231; experiment: Induction of mitochondrial membrane potential loss in human MDA-MB-231 cells at 5 uM incubated for 24 hrs by JC-1 staining based flow cytometry analysis; type: functional
[15] = Acute toxicity in C57BL/6 mouse assessed as change in white blood cells at 20 mg/kg,ip administration observed after 22 days; type: organism-based; details: in vivo, 528 h, time 22 day
[16] = test system: SN12C; experiment: Growth inhibition against human SN12C cells assessed as lethal concentration incubated for 48 hrs by sulforhodamine B spectrophotometric assay; type: functional; details: read-out: LC50 (the source's name)
[17] = test system: CCRF-CEM; experiment: Induction of cell cycle arrest in human CCRF-CEM cells assessed as accumulation of cells at M phase at 4.14 uM incubated for 24 hrs by propidium iodide staining based flow cytometry analysis (reference value: 1.97 +/- 0.042%); type: functional
[18] = test system: HCT-116; experiment: Growth inhibition against human HCT-116 cells assessed as lethal concentration incubated for 48 hrs by sulforhodamine B spectrophotometric assay; type: functional; details: read-out: LC50 (the source's name)
[19] = test system: SF-295; experiment: Growth inhibition against human SF-295 cells assessed as lethal concentration incubated for 48 hrs by sulforhodamine B spectrophotometric assay; type: functional; details: read-out: LC50 (the source's name)
[20] = test system: DU-145; experiment: Growth inhibition of human DU-145 cells incubated for 48 hrs by sulforhodamine B spectrophotometric assay; type: functional
[21] = test system: SNB-75; experiment: Growth inhibition against human SNB-75 cells assessed as lethal concentration incubated for 48 hrs by sulforhodamine B spectrophotometric assay; type: functional; details: read-out: LC50 (the source's name)
[22] = test system: Hs-578T; experiment: Growth inhibition against human Hs-578T cells assessed as lethal concentration incubated for 48 hrs by sulforhodamine B spectrophotometric assay; type: functional; details: read-out: LC50 (the source's name)
[23] = test system: LOX IMVI; experiment: Growth inhibition against human LOX IMVI cells assessed as lethal concentration incubated for 48 hrs by sulforhodamine B spectrophotometric assay; type: functional; details: read-out: LC50 (the source's name)
[24] = test system: BT-549; experiment: Growth inhibition of human BT-549 cells incubated for 48 hrs by sulforhodamine B spectrophotometric assay; type: functional
[25] = test system: HCT-116; experiment: Growth inhibition against human HCT-116 cells assessed as total growth inhibitory concentration incubated for 48 hrs by sulforhodamine B spectrophotometric assay; type: functional
[26] = test system: SK-MEL-28; experiment: Growth inhibition against human SK-MEL-28 cells assessed as total growth inhibitory concentration incubated for 48 hrs by sulforhodamine B spectrophotometric assay; type: functional
[27] = test system: HOP-62; experiment: Growth inhibition against human HOP-62 cells assessed as total growth inhibitory concentration incubated for 48 hrs by sulforhodamine B spectrophotometric assay; type: functional
[28] = Cytotoxicity against human HaCaT cells assessed as cell growth inhibition incubated for 72 hrs by MTT assay; type: toxicity, cell-based; details: HaCaT cells
[29] = test system: CCRF-CEM; experiment: Induction of cell cycle arrest in human CCRF-CEM cells assessed as accumulation of cells at higher G2/M phase at 20.7 uM incubated for 24 hrs by propidium iodide staining based flow cytometry analysis (reference value: 10.09 +/- 0.14%); type: functional
[30] = test system: K562; experiment: Growth inhibition against human K562 cells assessed as total growth inhibitory concentration incubated for 48 hrs by sulforhodamine B spectrophotometric assay; type: functional
[31] = test system: KB 3-1; experiment: Induction of apoptosis in human KB 3-1 cells assessed as increase in […] protein expression at 0.5 to 5 uM incubated for 3 hrs by Western blotting assay; type: functional, cell-based; details: dose 0.5-5 µM
[32] = test system: LOX IMVI; experiment: Growth inhibition of human LOX IMVI cells incubated for 48 hrs by sulforhodamine B spectrophotometric assay; type: functional
[33] = test system: KM12; experiment: Growth inhibition against human KM12 cells assessed as total growth inhibitory concentration incubated for 48 hrs by sulforhodamine B spectrophotometric assay; type: functional
[34] = test system: A498; experiment: Growth inhibition against human A498 cells assessed as total growth inhibitory concentration incubated for 48 hrs by sulforhodamine B spectrophotometric assay; type: functional
[35] = test system: SK-MEL-2; experiment: Growth inhibition against human SK-MEL-2 cells assessed as total growth inhibitory concentration incubated for 48 hrs by sulforhodamine B spectrophotometric assay; type: functional
[36] = test system: K562; experiment: Cytotoxicity against human K562 cells assessed as cell growth inhibition incubated for 72 hrs by MTT assay; type: functional, cell-based; details: K562, 72 h
[37] = test system: OVCAR-4; experiment: Growth inhibition against human OVCAR-4 cells assessed as total growth inhibitory concentration incubated for 48 hrs by sulforhodamine B spectrophotometric assay; type: functional
[38] = test system: CCRF-CEM; experiment: Growth inhibition against human CCRF-CEM cells assessed as lethal concentration incubated for 48 hrs by sulforhodamine B spectrophotometric assay; type: functional; details: read-out: LC50 (the source's name)
[39] = test system: OVCAR-4; experiment: Growth inhibition against human OVCAR-4 cells assessed as lethal concentration incubated for 48 hrs by sulforhodamine B spectrophotometric assay; type: functional; details: read-out: LC50 (the source's name)
[40] = Acute toxicity in C57BL/6 mouse assessed as change in hemoglobin level at 20 mg/kg,ip administration observed after 22 days; type: organism-based; details: in vivo, 528 h, time 22 day
[41] = test system: DU-145; experiment: Growth inhibition against human DU-145 cells assessed as lethal concentration incubated for 48 hrs by sulforhodamine B spectrophotometric assay; type: functional; details: read-out: LC50 (the source's name)
[42] = test system: IGROV-1; experiment: Growth inhibition of human IGROV-1 cells incubated for 48 hrs by sulforhodamine B spectrophotometric assay; type: functional
[43] = Antileukemic activity against human CLL cell assessed as cell growth inhibition incubated for 72 hrs during remission period by MTT assay; type: functional, cell-based
[44] = test system: HCT-15; experiment: Growth inhibition of human HCT-15 cells incubated for 48 hrs by sulforhodamine B spectrophotometric assay; type: functional

O=C1C2=C(C(=O)c3c(O)cccc31)C(c1ccco1)c1sc(=O)[nH]c1S2 (centres undefined)
GI50 [1]: 2.75 µM | Activity [2]: 67.05% | CC50 [3]: 7.05 µM | CC50 [4]: 9.85 µM | TGI [5]: 3.19 µM | TGI [6]: 4.58 µM | Activity [7]: 42.33% | TGI [8]: 2.37 µM | Activity [9]: 15% | GI50 [10]: 3.71 µM | CC50 [11]: > 100 µM | TGI [12]: 3.01 µM | Activity [13]: 62.7% | Activity [14]: 15.7% | Activity [15]: Non-Toxic | CC50 [16]: 6.99 µM | Activity [17]: 1.25% | CC50 [18]: > 100 µM | CC50 [19]: 6.5 µM | GI50 [20]: 1.55 µM | CC50 [21]: 25.8 µM | CC50 [22]: > 100 µM | CC50 [23]: 84 µM | GI50 [24]: 1.64 µM | TGI [25]: > 100 µM | TGI [26]: 3.72 µM | TGI [27]: 3.74 µM | IC50 at 72 h [28]: 37.2 µM | Activity [29]: 20.54% | TGI [30]: > 100 µM | Activity [31]: inactive | GI50 [32]: 2.21 µM | TGI [33]: 31.3 µM | TGI [34]: 9.69 µM | TGI [35]: 16.4 µM | IC50 [36]: 5.98 µM | TGI [37]: 3.95 µM | CC50 [38]: > 100 µM | CC50 [39]: 8.71 µM | Activity [40]: Non-Toxic | CC50 [41]: 5.81 µM | GI50 [42]: 2.51 µM | IC50 [43]: 28.2 µM | GI50 [44]: 1.75 µM
